One molecule from patent US20260191843A1, “METHODS AND MATERIALS FOR TREATING BURNS” (The Penn State Research Foundation, priority 2022, published 2026) can be followed below.

SMILES strings stand for the structures. “Also recorded” adds a separate entry of the source.

For experiment [1], the system named is deep-partial thickness burn wound on the mouse dorsum. Nature of the experiment: Burn wound healing in mice: wound area and percentage of wound closure. Format: in vivo, wild-type C57BL/6 mouse. The method, then:
(§1) Place the 8-10-week-old wild-type C57BL/6 mouse on its side on a sterile paper sheet. Anesthesia was achieved and maintained with isoflurane utilizing an induced with an intraperitoneal injection of ketamine (60 mg/kg) and xylazine (4 mg/kg). An adequate depth of anesthesia was ensured via lack of a withdrawal reflex when a toe pinch was performed. The depth of anesthesia was monitored as well as respiration and mucous membrane color (pink: normal, pale: blood loss, blue: cyanosis). The surgeon(s) used sterile gloves, mask and a clean lab coat. Sterile surgical instruments (autoclaved) were used during all survival surgeries. The skin was prepared for creation of wound on the dorsal and side skin (from neck to tail) by shaving with a mechanical shaver and then applying a hair removal cream on the skin for 3-5 minutes. Hair was removed completely by gently wiping the skin with cotton balls soaked in warm water. Skin disinfection around the incision site was done using 70% ethanol and betadine for 3 times. Then, the dorsal skin was folded and raised cranially and caudally at the midline using index fingers and thumbs, and the animal was placed in a lateral position. The burn wound was created by contacting a 10 mm diameter brass heating device maintained at 100° C. to the mouse dorsum at a constant pressure. The device remained in contact with the skin for 4 seconds in order to create a deep-partial thickness burn. After burn wound creation, the wound site was photographed, the wound area was circled using permanent pen marker, and the wound surface was covered with a TEGADERM™ (3M) sterile transparent dressing. After surgery, mice were given SR Buprenorphine (0.05 mg/kg) for post-operative analgesia. Then, mice were placed in a clean cage on the heating pad for 30 minutes to help the recovery process. Immediately after the recovery, mice were randomly grouped and treated with either with 4-AP (systemic, ip) or saline (control).
Functional analysis of the burn wound area was performed by placing a transparent sheet on the surface of the circled wound, and placing a ruler close to the burn wound to capture photographs of individual wounds on 0, 3, 7, 10, 14, 18, 21, and 26 days. The wound size of each individual mice was measured and compared to zero day wound diameter from the circled sheet. The percentage of wound closure was calculated using this formula: (area of original wound-area of the actual burn wound)/area of original burn wound×100.

Experiment [2] shares this test system. Nature of the experiment: Morphometric burn wound healing assessment at day 26 (H&E and Masson's trichrome staining). Format: in vivo, wild-type C57BL/6 mouse. The method, then: as §1, with “(control). […]” for “(control).”
[3] abbreviates: 4-AP treated vs saline-treated mice.

On to `Nc1ccncc1` [4-AP, 4-aminopyridine], for which the “acceleration of wound closure” value in experiment [1] (by day 3, systemic 4-AP vs saline, P between 0.01 and 0.05) was “significant increase in wound closure by day 3; also recorded: accelerated wound closure by day 3”. Besides, the closed wounds entry in experiment [1] (by day 26, systemic 4-AP) was “closed wounds by day 26”. Moreover, in experiment [1] (day 5, systemic (ip) 4-AP, saline treated animals showed 25% expansion of wound area), the “reduced wound area (relative to initial wound area)” value was 5%. Also, the “protection from expansion of wound size (necrosis and apoptosis at zone of stasis)” value in experiment [1] (systemic 4-AP vs saline) is given as “significant burn wound protection from expansion of wound; also recorded: significantly prevented expansion of wound size”. The “burn wound closure and tissue regeneration as compared to control animals” value in experiment [1] (systemic 4-AP vs systemic saline) was “improved burn wound closure and tissue regeneration”. In experiment [2] (setting [3]), the “collagen deposition in the healing wound (Masson's Trichrome)” value is “elevated collagen deposition” and the “thickness of newly formed epidermis within the healed wound (H&E)” value is reported as “significantly thicker”. In addition, the re-epithelialization result in experiment [2] (not completed in saline-treated mice) is “re-epithelialization was complete”.
